This is an account of results in PubChem BioAssay (NCI).

Where “and” joins values, the source holds several entries; their conditions need not be identical. Equal values may be shown once.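 48-hour exposure; five concentrations; linearly interpolated endpoints. The concentration for 50% growth inhibition is given as GI50. TGI: total growth inhibition.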 Calls of active or inactive are those of the source. Rule as the data show it: active = GI50 below about 0.43 µM; inactive = the rest.

Common to all, as to assay: inhibition of tumour cell growth, NCI panel, 48 h
Assay [1] relates to XF 498 CNS.
The subject of assay [2] is LXFL 529 NSCLC.
Assay [3] has as its system SNB-78 CNS.
Assay [4] has as its system KM20L2 colon.
Assay [5] concerns M19-MEL melanoma.
In assay [6] the test system is DLD-1 colon.
Assay [7] relates to MDA-N.
Assay [8] deals with HOP-18 NSCLC.

Take `N#C/C(=C1\OC(=N)C(c2ccc(Cl)cc2Cl)C1=O)c1ccc(Cl)cc1Cl` (configuration not stated): the TGI in assay [1], in assay [2], in assay [3], in assay [4], in assay [5] and in assay [6] was above 100 µM in each case.

Consider `O=C(CO)C1CC2C=CC1C2` (configuration not stated), for which the TGI in assay [1], in assay [2], in assay [3] and in assay [5] was above 100 µM each time.

With `COc1c(OC(C)C)cc2cc(O)c(C(=O)NC3Cc4ccc(c(Cl)n4)O[C@@H]4C=C5C#C/C(=C\C#CC6OC56C4OC4CC(C)(O)C(O)C(C)O4)C(OC4CC(O)C(N(C)C)C(C)O4)COC3=O)cc2c1OC` (some centres not stated), the outcome in assay [1], in assay [2], in assay [4] and in assay [8] was inactive. The TGI in assay [7] was above 36.3 µM; in assay [3], 37.5 µg/mL; in assay [5], 37.5 µg/mL; in assay [6], 37.5 µg/mL. Moreover, the figures for the GI50 in assay [3], in assay [5] and in assay [6] were 37.5 µg/mL, 1.68 µg/mL and 8.16 µg/mL, respectively.

On to `COc1c(CC=C(C)C)c(O)c(C(CC(C)C)c2c(O)c(CC=C(C)C)c(O)c(C(C)=O)c2O)c(O)c1C(C)=O` (configuration not stated), for which the TGI was determined as 2.09 µM in assay [1]; 8.08 µM in assay [7]; 17.5 µM in assay [3]; 5.13 µM in assay [5]; 10.9 µM in assay [6]; 14.7 µM in assay [8].

On to `CC(=O)CC(=O)CCC(=O)Nc1cccc(C(F)(F)F)c1`, for which the TGI in assay [1], in assay [2], in assay [3], in assay [4], in assay [6] and in assay [8] was above 100 µM each time.

Take `CC(=O)[CH-]C(C)=O.CC(=O)[CH-]C(C)=O.CC(=O)[CH-]C(C)=O.[Ga+3]`: the GI50 in assay [1], in assay [2], in assay [4] and in assay [6] was above 100 µM throughout. In addition, the TGI in assay [1], in assay [2], in assay [4] and in assay [6] was above 100 µM throughout.

As to `CC(C)OC(=O)C1Cc2c([nH]c3ccccc23)C(c2ccccc2)N1` (configuration not stated), the TGI in assay [1], in assay [2], in assay [3], in assay [4], in assay [5] and in assay [6] was above 100 µM in each case.

Regarding `C/C(=N\NC(=S)N1CCN(c2ccccn2)CC1)c1ncccn1`, the TGI in assay [1] was 13.8 µM; in assay [7], 14.8 µM; in assay [3], 23.1 µM; in assay [5], 2.67 µM and 11.2 µM; in assay [6], 4.98 µM and 14.3 µM; in assay [8] it was 8.39 µM and 20.3 µM. Moreover, the GI50 in assay [7] is 0.233 µM; in assay [5], 1.54 µM; in assay [6] it was 0.0258 µM; in assay [8] it was 4.4 µM.

With `Cc1ccc(C2=Nc3ccccc3SC(c3cccc4c3OCO4)C2)cc1` (configuration not stated), the TGI in assay [1] was 29 µM; in assay [2], 28.9 µM; in assay [4] it was 41.2 µM; in assay [5], 36.3 µM; in assay [6], 90.3 µM; in assay [8], 38.4 µM.

In assay [7], `Cc1cc(O)c2c3c(ccc2c1)C(=O)c1c(O)cccc1C3=O` showed a TGI of 0.353 µM.

For `CC(C)(C)c1cc(C(=O)O)c2c(c1)C(=O)OC2(c1ccccc1)c1ccccc1C(=O)O` (configuration not stated), the TGI in assay [1], in assay [2], in assay [4], in assay [5], in assay [6] and in assay [8] was above 100 µM each time.

Regarding `O=C(c1c(O)cc(O)cc1O)C1Cc2ccccc21` (configuration not stated), the TGI in assay [2], in assay [3], in assay [4], in assay [5], in assay [6] and in assay [8] was above 100 µM in each case.

As for `CC(=O)OCC(CC[CH2][Sn]([Cl])([Cl])[c]1ccccc1)OC(C)=O` (configuration not stated), the GI50 in assay [1] was 17.8 µM; in assay [2] it was 14 µM; in assay [3] it was 27.5 µM; in assay [4], 24.8 µM; in assay [5] it was 25.1 µM; in assay [6] it was 21.2 µM. In addition, the GI50 in assay [8] was 16.5 µM. Further, the TGI was found to be 32.2 µM in assay [1]; 27 µM in assay [2]; 48.7 µM in assay [3]; 52 µM in assay [4]; 62.1 µM in assay [5]; 47.2 µM in assay [6]. This molecule came in with a TGI in assay [8] of 40 µM.

Turning to `[Cl][Cu][Cl]`, in assay [7], the GI50 is above 10 µM and the TGI is above 10 µM.

On to `C[P+]1(c2ccccc2)CCCCC1`, for which the TGI in assay [2], in assay [3], in assay [4], in assay [5] and in assay [6] was above 100 µM each time.

With `O=[N+]([O-])c1cc(Cc2cc([N+](=O)[O-])c3cccnc3c2O)c(O)c2ncccc12`, in assay [7], the TGI is above 80 µM.

`O=[N+]([O-])/C=C/c1ccc(Cl)cc1Cl`: the TGI in assay [2] was found to be 27.1 µM; in assay [4] it was 42.1 µM; in assay [5], 19.5 µM; in assay [6], 84.4 µM.

For `CC1CCC2(C)C(CC=C(C=O)C2(O)C=O)C12CO2` (configuration not stated), the TGI in assay [1] is 7.21 µM; in assay [2] it was 3.33 µM; in assay [3], 5.46 µM; in assay [4] it was 6.09 µM; in assay [5], 5.75 µM.

Turning to `O=C(Cc1ccccc1)C(c1ccccc1)S(=O)(=O)c1ccccc1` (configuration not stated), the TGI in assay [1], in assay [2], in assay [3], in assay [4], in assay [5] and in assay [6] was above 100 µM throughout. The TGI in assay [8] is above 100 µM.

Consider `CC(N)CC(=O)O` (configuration not stated), for which the TGI in assay [2], in assay [3], in assay [4], in assay [5], in assay [6] and in assay [8] was above 5000 µM throughout.

With `CN(C)c1nc(N)c(C#N)c(C#N)c1C#N`, the TGI in assay [7] was above 10 µM.

For the molecule `Cc1cc2c(c(=O)o1)C1=S(SC(c3ccccc3)=C1)S2` (configuration not stated), the TGI in assay [7] was above 100 µM.

Molecule `O=c1[nH]c(=S)[nH]c(-c2ccccc2)c1Cc1c(O)ccc2ccccc12` registered a TGI in assay [7] of 89.5 µM.

With `Nc1nc(C(=O)O)c(N=Nc2ccccc2)c(=O)[nH]1`, in assay [7], the TGI was above 100 µM.

Take `COC1=C(OC)[C@]2(OC)c3c(O)c(OC)c4c(c3O[C@@]23O[C@@H](c2ccccc2)CC=C3C1=O)[C@@H](OC)C[C@H](c1ccccc1)O4`: in assay [7], the GI50 was 0.34 µM and the TGI came to 1.16 µM.

As to `c1ccc(-c2csc3ncn4cnnc4c23)cc1`, the TGI in assay [2], in assay [3], in assay [4], in assay [5], in assay [6] and in assay [8] was above 100 µM each time.

As to `O=c1[nH]c2ccccc2n1C1CCN(CCCC(c2ccc(F)cc2)c2ccc(F)cc2)CC1`, the TGI in assay [1] worked out at 11.6 µM; in assay [7], 21.4 µM; in assay [2] it was 13.4 µM; in assay [3], 32 µM; in assay [4] it was 5.87 µM; in assay [5], 13.1 µM. Further, the TGI stood at 13.9 µM in assay [6] and 29 µM in assay [8].

In turn, `Cc1ccc(S(=O)(=O)NC(=O)OC23COCN2COC3)cc1` showed a TGI in assay [7] above 100 µM.

`CCOC(=O)C(CCCNC(=O)OC(C)(C)C)N(Cc1ccc(OC)cc1OC)C(=O)CC(=O)CP(=O)(OCC)OCC` (configuration not stated): the TGI in assay [2], in assay [4], in assay [5], in assay [6] and in assay [8] was above 100 µM throughout.

`CN1CCCC1c1cccnc1.O=C(O)c1ccccc1O.O=C([O-])c1ccccc1[OH2+].O=C([O-])c1ccccc1[OH2+].[Mn+2]` (configuration not stated): in assay [7], the GI50 was above 100 µM and the TGI is above 100 µM.

In the case of `c1ccc(CN2COc3c(ccc4c5c(ccc34)CN(Cc3ccccc3)CO5)C2)cc1`, the TGI in assay [7], in assay [2], in assay [3], in assay [4], in assay [5] and in assay [6] was above 100 µM in each case. Besides, the TGI in assay [8] is above 100 µM.

With `C/C(=N\NC(=O)C(N)=O)c1c(O)cc(C)oc1=O`, the TGI in assay [2], in assay [3], in assay [4], in assay [5] and in assay [6] was above 100 µM throughout.

Take `C=C1C=CC2(Br)OC3CC(C)(Cl)C(Br)CC13C2(C)C` (configuration not stated): the TGI in assay [1] is 27.9 µM; in assay [2] it was above 100 µM; in assay [3], 61.7 µM; in assay [4], 49.7 µM; in assay [5] it was 44.9 µM; in assay [6] it was above 100 µM.

As to `NC(=O)CC(N)c1nn[nH]n1` (configuration not stated), in assay [7], the TGI is above 100 µM.
